What was measured:
Desulfovibrio vulgaris = test: Log10 reduction of viable anaerobic bacteria in high-TDS buffer after biocide contact; assay type: cell-based; details: TDS 30,000 mg l^-1, pH 8 phosphate buffer, room temperature, versus control, ppm active per example, 5 = complete kill
Protocol: (§1) Aqueous systems inoculated with anaerobe and facultative anaerobe culture and having a total dissolved solids (TDS) concentration of 30,000 mg l^−1 were prepared and treated with treatment agents comprising: (a) a phosphonium compound and (b) a quaternary ammonium salt. The phosphonium compound (a) used was tri n-butyl n-tetradecyl phosphonium chloride (TTPC). The quaternary ammonium salt (b) used was 1-(3-chloroallyl)-3,5,7-triaza-1-azoniaadamantane chloride (CTAC).
(§2) A suspension of Desulfovibrio vulgaris plus Enterobacter aerogenes bacteria containing from 1×10^5 to 1×10^6 cells/mL was prepared in sterile pH 8 phosphate buffer containing sodium chloride to give the desired total dissolved solids (TDS) concentration. Aliquots of this suspension were dosed with the indicated concentrations of the compounds (a) and (b) with the concentrations being measured as ppm active by weight. The mixtures were allowed to stand at room temperature. At the designated contact times, each mixture was sampled to determine the total number of viable cells of both Desulfovibrio vulgaris and Enterobacter aerogenes by serial 10-fold dilution into API RP 38 media vials and anaerobic acid producing media vials, respectively. The vials were incubated at 37° C. for 72 hours. Results were recorded as log10 reduction in the viable count versus the control.
(§3) The efficacy of the treatment agents was evaluated by measuring the Log10 Reduction of the anaerobic bacterium Desulfovibrio vulgaris and the facultative anaerobic bacterium Enterobacter aerogenes after contact times of 1 hour, 4 hours, 24 hours and 48 hours as detailed in Table 1. For TTPC the stated ppm value relates to the amount of TTPC added (active). For the CTAC the stated ppm relates to the amount of CTAC added (active).

Enterobacter aerogenes = test: Log10 reduction of viable facultative anaerobic bacteria in high-TDS buffer after biocide contact; assay type: cell-based; details: TDS 30,000 mg l^-1, pH 8 phosphate buffer, room temperature, versus control, ppm active per example, 8 = complete kill
Protocol: as §1, §2, §3

SMILES: CCCCCCCCCCCCCC[P+](CCCC)(CCCC)CCCC.[Cl-] [Example 1, tri n-butyl n-tetradecyl phosphonium chloride]
- Log10 Reduction Anaerobes (Desulfovibrio vulgaris; contact time 1 hour): 2
- Log10 Reduction Facultative Anaerobes (Enterobacter aerogenes; contact time 1 hour): 1

SMILES: CCCCCCCCCCCCCC[P+](CCCC)(CCCC)CCCC.[Cl-] [Example 2, tri n-butyl n-tetradecyl phosphonium chloride]
- Log10 Reduction Anaerobes (Desulfovibrio vulgaris; contact time 1 hour): 3
- Log10 Reduction Facultative Anaerobes (Enterobacter aerogenes; contact time 1 hour): 3

SMILES: ClC=CC[N+]12CN3CN(CN(C3)C1)C2.[Cl-] [Example 4, 1-(3-chloroallyl)-3,5,7-triaza-1-azoniaadamantane chloride]
- Log10 Reduction Anaerobes (Desulfovibrio vulgaris; contact time 1 hour): 0
- Log10 Reduction Facultative Anaerobes (Enterobacter aerogenes; contact time 1 hour): 0

SMILES: CCCCCCCCCCCCCC[P+](CCCC)(CCCC)CCCC.[Cl-] [Example 9, tri n-butyl n-tetradecyl phosphonium chloride]
- Log10 Reduction Anaerobes (Desulfovibrio vulgaris; contact time 4 hours): 5
- Log10 Reduction Facultative Anaerobes (Enterobacter aerogenes; contact time 4 hours): 2

SMILES: CCCCCCCCCCCCCC[P+](CCCC)(CCCC)CCCC.[Cl-] [Example 10, tri n-butyl n-tetradecyl phosphonium chloride]
- Log10 Reduction Anaerobes (Desulfovibrio vulgaris; contact time 4 hours): 5
- Log10 Reduction Facultative Anaerobes (Enterobacter aerogenes; contact time 4 hours): 8

SMILES: ClC=CC[N+]12CN3CN(CN(C3)C1)C2.[Cl-] [Example 11, 1-(3-chloroallyl)-3,5,7-triaza-1-azoniaadamantane chloride]
- Log10 Reduction Anaerobes (Desulfovibrio vulgaris; contact time 4 hours): 0
- Log10 Reduction Facultative Anaerobes (Enterobacter aerogenes; contact time 4 hours): 0

SMILES: ClC=CC[N+]12CN3CN(CN(C3)C1)C2.[Cl-] [Example 12, 1-(3-chloroallyl)-3,5,7-triaza-1-azoniaadamantane chloride]
- Log10 Reduction Anaerobes (Desulfovibrio vulgaris; contact time 4 hours): 0
- Log10 Reduction Facultative Anaerobes (Enterobacter aerogenes; contact time 4 hours): 1

SMILES: CCCCCCCCCCCCCC[P+](CCCC)(CCCC)CCCC.[Cl-] [Example 17, tri n-butyl n-tetradecyl phosphonium chloride]
- Log10 Reduction Anaerobes (Desulfovibrio vulgaris; contact time 24 hours): 5
- Log10 Reduction Facultative Anaerobes (Enterobacter aerogenes; contact time 24 hours): 4

SMILES: CCCCCCCCCCCCCC[P+](CCCC)(CCCC)CCCC.[Cl-] [Example 18, tri n-butyl n-tetradecyl phosphonium chloride]
- Log10 Reduction Anaerobes (Desulfovibrio vulgaris; contact time 24 hours): 5
- Log10 Reduction Facultative Anaerobes (Enterobacter aerogenes; contact time 24 hours): 7

SMILES: ClC=CC[N+]12CN3CN(CN(C3)C1)C2.[Cl-] [Example 19, 1-(3-chloroallyl)-3,5,7-triaza-1-azoniaadamantane chloride]
- Log10 Reduction Anaerobes (Desulfovibrio vulgaris; contact time 24 hours): 1
- Log10 Reduction Facultative Anaerobes (Enterobacter aerogenes; contact time 24 hours): 0

SMILES: ClC=CC[N+]12CN3CN(CN(C3)C1)C2.[Cl-] [Example 20, 1-(3-chloroallyl)-3,5,7-triaza-1-azoniaadamantane chloride]
- Log10 Reduction Anaerobes (Desulfovibrio vulgaris; contact time 24 hours): 3
- Log10 Reduction Facultative Anaerobes (Enterobacter aerogenes; contact time 24 hours): 2

SMILES: CCCCCCCCCCCCCC[P+](CCCC)(CCCC)CCCC.[Cl-] [Example 25, tri n-butyl n-tetradecyl phosphonium chloride]
- Log10 Reduction Anaerobes (Desulfovibrio vulgaris; contact time 48 hours): 5
- Log10 Reduction Facultative Anaerobes (Enterobacter aerogenes; contact time 48 hours): 6

SMILES: ClC=CC[N+]12CN3CN(CN(C3)C1)C2.[Cl-] [Example 27, 1-(3-chloroallyl)-3,5,7-triaza-1-azoniaadamantane chloride]
- Log10 Reduction Anaerobes (Desulfovibrio vulgaris; contact time 48 hours): 5
- Log10 Reduction Facultative Anaerobes (Enterobacter aerogenes; contact time 48 hours): 2

SMILES: ClC=CC[N+]12CN3CN(CN(C3)C1)C2.[Cl-] [Example 28, 1-(3-chloroallyl)-3,5,7-triaza-1-azoniaadamantane chloride]
- Log10 Reduction Anaerobes (Desulfovibrio vulgaris; contact time 48 hours): 5
- Log10 Reduction Facultative Anaerobes (Enterobacter aerogenes; contact time 48 hours): 3

From patent US20170094976A1, “TREATMENT OF WATER” (BWA WATER ADDITIVES UK LIMITED, priority 2015, published 2017)
